One substance from PMC2010280 (British Journal of Cancer, 1980) can be followed below.

The text on series [1]:
MATERIALS AND METHODS Mice.-6-8-week-old male DBA/2 mice weighing 20-25 g were purchased from the Jackson Laboratory, Bar Harbor, Maine. They were maintained on normal laboratory chow and acid water ad. lib. Mouse leukaemia.-P388 lymphocytic leu- kaemia was supplied by Dr Daniel Griswold, Southern Research Institute, Birmingham, Alabama, and serially transplanted as ain ascites tumour at weekly intervals ([…] every 7 days in McCoy's 5a medium. Gibco, Grant Island, NY). […] Ill addition to an un- treated control group, 5 animals were implanted with minipumps containing 0.900 NaCl. Seven days after cell injection, the mice of the untreated control and treated groups were killed, femurs isolated, and marrow cells washed out with McCoy's 5a medium. Appro- priate dilutions of the leukaemic femoral marrow cells were injected i.v. into groups of 10 DBA/2 mice. Eight days later, the recipient mice were killed, spleens removed and fixed in Bouin's solution. The number of surface nacroscopic, leukaemic colony-forming units (LCFU-S) were counted with a dissecting microscope, and the fraction of surviving LCFU per femur determined. Pharmacokinetic studies.-On Day 0, 106 P388 ascites cells were injected i.v. into groups of 30 DBA/2 mice. […] For the C.i.p. group, blood samples from at least 3 mice were col- lected in heparinized tubes by heart puncture every day for 6 days. […] At least 3 mice were killed at each sampling time. Blood samples were centrifuged at 2,000 rev/min and 4?C for 10 min and the plasmas separated and immediately stored at -20?C. […] Data analysis-Statistical analysis of the differences betwNeen LCFU dose-response (i.e., drug dose vs fraction of CFU surviving per femur) curves for the two different treat- ments used the analysis of covariance method (Snedecor & Cochran, 1979). […] I. Intravenous administration. Cancer Chemother. Pharmacol., 1, 177. […] II. Intra- cavitary administration. Cancer Chemother. Pharmacol., 2, 127. BAKER, L. H., OPIPARI, M. I., WILSON, H., BOTTOMLEY, R. & COLTMAN, C. A., JR. […] Obstet. Gynecol., 52, 146. BARRANCO, S. C. […] Ed. Carter, Crooke & Umezawa. New York: Academic Press. p. […] Cancer Res., 36, 1418. MELLETT, L. B. (1973) Considerations in design of optimal therapeutic schedules, Pharmacology and the Future of Man. In Problems of Therapy, Vol. 3. Ed. Okita & Acheson. Basel: S. Karger. p. 332. METZLER, C. M. (1969) Technical Report 7292/69/ 7292/005. […] Proc. AACR and ASCO, 20, 202. […] Eds. Carter, Crooke & Umezawa. New York: Academic Press. p. 117. […] Cancer Treat. Rep., 62, 2011. SKIPPER, H. E., SCHABEL, F. M., JR & WILCOX, W. S. (1967) Experimental evaluation of potential anticancer agents. XXI. Scheduling of arabinosyl cytosine to take advantage of its S-phase speci- ficity against leukaemia cells. Cancer Chemother Rep., 51, 125. […]

The nature of series [2]: Bleomycin stability in the Alzet osmotic minipump. Conditions: in 0.9% NaCl, 37 C, for at least 6 days (determined for 7 days in saline).
Series [3] relates to P388 leukaemic spleen colony-forming-units(LCFU-S). The series can be described thus: Mouse spleen-colony assay (P388 leukaemia, femoral marrow LCFU-S). Conditions: 8 u/kg/day for 6 days (Day 1-6); 10^6 P388 cells i.v. on Day 0; osmotic minipump vs daily i.p. bolus; groups of 5 mice. The format is in vivo, male DBA/2 mice. The source says: MATERIALS AND METHODS Mice.-6-8-week-old male DBA/2 mice weighing 20-25 g were purchased from the Jackson Laboratory, Bar Harbor, Maine. They were maintained on normal laboratory chow and acid water ad. lib. Mouse leukaemia.-P388 lymphocytic leu- kaemia was supplied by Dr Daniel Griswold, Southern Research Institute, Birmingham, Alabama, and serially transplanted as ain ascites tumour at weekly intervals ([…] every 7 days in McCoy's 5a medium. Gibco, Grant Island, NY). […] Ill addition to an un- treated control group, 5 animals were implanted with minipumps containing 0.900 NaCl. Seven days after cell injection, the mice of the untreated control and treated groups were killed, femurs isolated, and marrow cells washed out with McCoy's 5a medium. Appro- priate dilutions of the leukaemic femoral marrow cells were injected i.v. into groups of 10 DBA/2 mice. Eight days later, the recipient mice were killed, spleens removed and fixed in Bouin's solution. The number of surface nacroscopic, leukaemic colony-forming units (LCFU-S) were counted with a dissecting microscope, and the fraction of surviving LCFU per femur determined. Pharmacokinetic studies.-On Day 0, 106 P388 ascites cells were injected i.v. into groups of 30 DBA/2 mice. […] For the C.i.p. group, blood samples from at least 3 mice were col- lected in heparinized tubes by heart puncture every day for 6 days. […]

In the case of bleomycin, the “period during which plasma concentrations greater than 0.6 mu/ml are maintained” value in series [1] (after continuous i.p. infusion (C.i.p.), 8 u/kg/day) is on record as “about 6 days”. Moreover, the “period during which bleomycin plasma concentration remains above 0.6 mu/ml” value in series [1] (after intermittent i.p. bolus (I.i.p.) administration, 8 u/kg/day) is on record as “about 92 min”. Further, the “constant bleomycin plasma level” value in series [1] (continuous i.p. infusion (osmotic minipump), 8 u/kg/day for 6 days, P388-bearing mice, radioimmunoassay, pooled plasma of groups of 3 mice, daily samples) is 0.62 +/- 0.03 mu/ml. In addition, the “peak bleomycin plasma level” value in series [1] (intermittent i.p. bolus, 8 u/kg/day, at 5 min after the dose, Day 5, radioimmunoassay) was 32 mu/ml. In addition, the “stability inside the osmotic minipump” value in series [2] amounted to 100%. Moreover, in series [3], the “greater reduction of LCFU-S by continuous i.p. infusion than by intermittent i.p. bolus at identical dose” value came to 0.5 log.
